Test results from patent US7635467B2, “Mammalian multipotent stem cells and compositions, methods of preparation and methods of administration thereof” (The Board of Trustees of the University of Illinois, priority 2002, dated 2009).
Entries after “also recorded” stand apart in the source; their conditions may differ.

Experiments:
[1] = tested on: human MeSCs; test: Co-culture of BrdU-treated human MeSCs with differentiated NSCs, immunocytochemistry for bIII-tubulin and GFAP; type: cell-based; details: MeSCs treated with 10 μM BrdU for 5 days; seven days post-coculture
[2] = tested on: Genomic DNA from human MeSCs; test: Methylation-sensitive restriction enzyme (HpaII) digestion of genomic DNA from BrdU-treated MeSCs; details: 0, 1 and 10 μM BrdU for 72 hr; dose-dependent
[3] = tested on: human MNSCs; test: Exposure of human MNSC cultures to recombinant reelin; type: cell-based
Text: The cell cluster is composed of undifferentiated cultured cells with migrating and differentiating cells forming the leading outer processes.

[4] = tested on: human MNSCs; test: Differentiation of human MNSCs treated with recombinant sAPP, serum-free conditions; type: cell-based
Protocol: To investigate whether 22C11-induced inhibition of human MNSC differentiation occurs through the sequestering of sAPP or by blocking the N-terminal domain of APP on the membrane of differentiating cells, human MNSCs were treated with exogenous sAPP. Recombinant human sAPP was produced in yeast, which contains 95% sAPP695T (ending at amino acid 505 of 695) and 5% sAPP695.
The cell population of sAPP-treated human MNSCs at 5 DIV under the serum-free differentiation condition was also characterized by double immunofluorescence labeling of GFAP and bIII tubulin (FIG. 29). Treatment with sAPP dose dependently (25, 50, 100 ng/ml) increased the population of GFAP positive cells from an average of 45% in controls (no sAPP) to an average of 83% using the highest concentration of sAPP (100 ng/ml at 5 DIV).

## O=c1[nH]c(=O)n([C@H]2C[C@H](O)[C@@H](CO)O2)cc1Br [BrdU, 5-bromo-2-deoxyuridine]
[1]
  GFAP-immunopositive large flattened multipolar cells, of total cells: approximately 60%
  bIII-tubulin immunopositive small bipolar and unipolar cells, of total cells: approximately 40%
[2]
  HpaII digestion of genomic DNA (size of DNA fragments): prevented enzyme digestion; also recorded: prevents methylation-sensitive restriction enzyme digestion of DNA

## recombinant reelin: large extracellular matrix (ECM) protein of approximately 400 kDa
[3]; addition of recombinant reelin to NSCs in culture
  mobility of cells in the cluster: increased mobility of cells
[3]; exposure to recombinant reelin
  behaviour of processes of differentiating human MNSC cultures: immediately retract their processes back to the cell cluster

## sAPP: Recombinant human sAPP produced in yeast, contains 95% sAPP695T (ending at amino acid 505 of 695) and 5% sAPP695
[4]; 100 ng/ml at 5 DIV, serum-free, 45% in controls
  population of GFAP positive cells: 83%
[4]; highest concentration of sAPP, 5 DIV, serum-free, 51% in controls
  bIII-tubulin-positive neurons in total population of differentiated human MNSCs: 13%
[4]; low doses of sAPP (e.g., 25 ng/ml), 5 DIV, serum-free
  differentiation pattern (GFAP / bIII-tubulin staining) compared to control: increased glial (red) and neuronal (green) differentiation
[4]; sAPP treatment
  TUNEL signal in human MNSCs: did not increase the TUNEL signal
[4]; serum-free differentiation conditions, 25, 50 and 100 ng/ml, 5 days, dose-dependent
  differentiation of human MNSCs: differentiated human MNSCs; also recorded: increased the differentiation
